The source made the active and inactive calls. Rule as the data show it, for most assays here: actives have a measured EC50 and inactives only a lower limit.
Legend:
Cytochrome P450 1A2 = biological target: T1, Cytochrome P450 1A2 (Homo sapiens, UniProt P05177);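 also: PubChem cytochrome P450 panel assay, CYP1A2 panel member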
T1 sequence (P05177 whole entry): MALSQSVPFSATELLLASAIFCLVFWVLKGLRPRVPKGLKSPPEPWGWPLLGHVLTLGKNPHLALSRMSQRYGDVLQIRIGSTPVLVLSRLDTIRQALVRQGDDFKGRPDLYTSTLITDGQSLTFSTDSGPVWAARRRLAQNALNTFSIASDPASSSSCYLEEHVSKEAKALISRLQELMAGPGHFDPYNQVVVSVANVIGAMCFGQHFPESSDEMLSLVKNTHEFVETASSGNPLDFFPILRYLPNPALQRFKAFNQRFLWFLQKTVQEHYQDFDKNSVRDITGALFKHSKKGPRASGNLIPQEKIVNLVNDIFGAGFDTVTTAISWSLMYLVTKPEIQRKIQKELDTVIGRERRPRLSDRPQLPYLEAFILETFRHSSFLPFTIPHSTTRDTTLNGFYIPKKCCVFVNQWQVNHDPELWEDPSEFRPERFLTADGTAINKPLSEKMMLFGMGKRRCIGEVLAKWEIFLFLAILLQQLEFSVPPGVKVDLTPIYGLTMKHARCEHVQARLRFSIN

[1] = alpha-synuclein stem-loop luciferase translation blockers – H4 neuroglioma cells, luminescence, confirmation (AID 1988); assay type: functional, cell-based
[2] = luciferase reporter signal suppression in cells – H4 neuroglioma cells, luminescence, dose response (AID 1990); assay type: functional, cell-based
[3] = Luminescence Cell-Based Dose Response HTS to Identify Inhibitors of 5'UTR Stem-Loop Driven Prion Protein mRNA Translation in H4 Neuroglioblastoma Cells. [Related pubchem assays: 1827 (Project Summary), 1813 (Primary HTS)]; assay type: functional
[4] = biological target: T2, Heat shock factor protein 1 (Mus musculus, UniProt P38532); assay: decrease of HSF1-responsive luciferase luminescence – cell-based, NIH3T3, dose retest, confirmation (AID 2382); assay type: functional;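 also: NIH3T3 fibroblasts with HSF1-driven luciferase reporter stressed by proteasome inhibitor MG132; luminescence from HSF1-driven luciferase expression after 8 hours of MG132 stress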
T2 sequence (P38532 whole entry): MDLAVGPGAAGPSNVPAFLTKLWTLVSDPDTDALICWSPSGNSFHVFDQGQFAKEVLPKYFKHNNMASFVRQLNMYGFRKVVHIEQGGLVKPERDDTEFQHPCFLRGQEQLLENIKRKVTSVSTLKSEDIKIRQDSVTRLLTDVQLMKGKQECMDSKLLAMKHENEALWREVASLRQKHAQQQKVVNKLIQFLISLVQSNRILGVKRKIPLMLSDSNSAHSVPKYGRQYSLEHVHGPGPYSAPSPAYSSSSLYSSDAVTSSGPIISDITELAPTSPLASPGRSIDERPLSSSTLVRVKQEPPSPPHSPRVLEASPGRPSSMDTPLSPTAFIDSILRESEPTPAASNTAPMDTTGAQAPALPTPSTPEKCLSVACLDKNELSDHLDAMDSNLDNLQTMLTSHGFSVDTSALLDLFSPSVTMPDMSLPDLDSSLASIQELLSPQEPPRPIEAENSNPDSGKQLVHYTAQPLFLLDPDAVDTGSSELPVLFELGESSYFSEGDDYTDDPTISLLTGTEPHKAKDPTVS

[5] = biological target: T3, Corticotropin-releasing factor receptor 2/Corticotropin-releasing factor-binding protein (Homo sapiens, UniProt P24387+Q13324); assay: Dose Response confirmation of uHTS hits for small molecule antagonists of the CRF-binding protein and CRF-R2 receptor complex.; assay type: functional; settings: read-out: IC50_Mean
T3 sequence (Q13324 whole entry): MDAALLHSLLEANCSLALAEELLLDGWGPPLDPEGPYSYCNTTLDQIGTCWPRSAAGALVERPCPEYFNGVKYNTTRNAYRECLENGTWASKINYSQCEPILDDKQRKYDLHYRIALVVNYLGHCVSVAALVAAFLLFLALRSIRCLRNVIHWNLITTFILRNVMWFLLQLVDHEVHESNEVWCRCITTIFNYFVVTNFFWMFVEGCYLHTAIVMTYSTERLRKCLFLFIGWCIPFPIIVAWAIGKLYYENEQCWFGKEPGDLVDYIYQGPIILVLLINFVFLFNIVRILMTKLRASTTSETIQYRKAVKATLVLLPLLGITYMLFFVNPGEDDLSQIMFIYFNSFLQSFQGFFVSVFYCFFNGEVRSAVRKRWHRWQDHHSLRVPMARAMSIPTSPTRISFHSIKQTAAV
T3 sequence (P24387 whole entry): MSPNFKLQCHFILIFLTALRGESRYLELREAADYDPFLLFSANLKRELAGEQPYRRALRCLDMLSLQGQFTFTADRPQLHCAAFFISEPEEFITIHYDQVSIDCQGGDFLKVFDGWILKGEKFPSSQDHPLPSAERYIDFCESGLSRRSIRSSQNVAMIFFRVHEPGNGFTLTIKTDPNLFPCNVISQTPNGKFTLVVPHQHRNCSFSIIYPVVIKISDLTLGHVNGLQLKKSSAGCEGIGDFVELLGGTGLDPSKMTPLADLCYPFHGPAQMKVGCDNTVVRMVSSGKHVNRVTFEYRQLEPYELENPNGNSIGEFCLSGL

[6] = biological target: T3, Corticotropin-releasing factor receptor 2/Corticotropin-releasing factor-binding protein; assay: activators of CRF receptor 2 with binding protein – uHTS hits, confirmation (AID 602473); assay type: functional; settings: read-out: EC50_Mean
H4 = assay: Luminescence Cell-Based Dose Response HTS to Identify Activators of 5'UTR Stem-Loop Driven Prion Protein mRNA Translation in H4 Neuroglioblastoma Cells. [Related pubchem assays: 1829 (Project Summary), 1814 (Primary HTS)]; assay type: functional; settings: Homo sapiens
[7] = Luminescence Cell-Based Dose Response HTS to Identify Activators of Luciferase Translation or Activity in H4 […] Cells. [Related pubchem assays: 1829 (Project Summary), 1814 (Primary HTS)]; assay type: functional
[8] = Luminescence Cell-Based Dose Confirmation HTS to Identify Activators of 5'UTR Stem-Loop Driven Alpha-Synuclein mRNA Translation in H4 Neuroglioblastoma Cells. [Related pubchem assays: 1829 (Project Summary), 1814 (Primary HTS)]; assay type: functional
Cytochrome P450 3A4 = Cytochrome P450 3A4 (Homo sapiens, UniProt P08684);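 also: CYP3A4 tested as one member of a cytochrome P450 panel screen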
Cytochrome P450 3A4, sequence (P08684 whole entry): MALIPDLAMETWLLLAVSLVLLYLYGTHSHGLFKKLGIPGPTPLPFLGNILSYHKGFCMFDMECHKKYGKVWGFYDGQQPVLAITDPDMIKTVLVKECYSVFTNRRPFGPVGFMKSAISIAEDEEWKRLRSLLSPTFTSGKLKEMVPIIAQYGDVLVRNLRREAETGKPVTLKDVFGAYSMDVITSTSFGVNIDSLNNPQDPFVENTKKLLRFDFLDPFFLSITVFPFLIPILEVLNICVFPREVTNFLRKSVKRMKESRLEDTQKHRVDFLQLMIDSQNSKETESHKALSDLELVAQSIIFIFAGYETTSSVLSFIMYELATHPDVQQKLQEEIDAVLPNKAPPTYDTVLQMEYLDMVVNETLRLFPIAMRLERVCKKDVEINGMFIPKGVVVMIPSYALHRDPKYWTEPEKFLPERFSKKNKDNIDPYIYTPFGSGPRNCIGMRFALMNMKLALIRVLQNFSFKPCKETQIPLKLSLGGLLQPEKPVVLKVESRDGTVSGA

In the case of Nc1nc(-c2ccc3ccccc3c2)cc(-c2cc(-c3ccc4ccccc4c3)nc(N)n2)n1, the AC50 (Cytochrome P450 1A2) is reported as 0.501 µM (inconclusive).

With Cc1c(Cc2ccccc2)sc(N)c1C(N)=O the EC50 [1] was > 120 µM (not active), the EC50 [2] was 22.7 µM (active) and the EC50 [3] was > 120 µM (not active).

With COc1ccc(CN=C(S)Nc2ccc(-c3ccccc3)cc2)cc1 the EC50 [1] was > 120 µM (not active), the EC50 [2] was > 120 µM (not active) and the EC50 [3] was > 120 µM (not active).

With CCc1cc(C)cc(OCCNC(=O)c2cncc(Br)c2)c1 the EC50 [4] was > 195 µM (not active).

For CCN(c1ccc(NS(=O)(=O)c2cc(Cl)ccc2Cl)cc1)C(C)C, the IC50 [5] was > 47.1 µM (inactive) and the EC50 [6] was > 53 µM (inactive).

For C=C(C)CSc1nc2cc(Cl)c[nH]c-2n1, the EC50 (H4) was 84.5 µM (active), the EC50 [7] was 50.8 µM (active) and the EC50 [8] was 19 µM (active).

For Oc1ccc(Br)cn1, the EC50 [1] was > 120 µM (not active), the EC50 [2] was > 120 µM (not active) and the EC50 [3] was > 120 µM (not active).

For COc1ccc(CN2C(=O)[C@@H]3Cc4c([nH]c5ccccc45)C(C)(C)N3C2=O)cc1, the EC50 [1] was > 120 µM (not active), the EC50 [2] was > 120 µM (not active) and the EC50 [3] was > 120 µM (not active).

For CCCNC(=O)COc1ccc2c(=O)c(Oc3ccccc3F)coc2c1, the EC50 [4] was > 195 µM (not active).

For Cc1cc(C)n(C(CC(=O)O)C(=O)O)n1 (centres undefined), the EC50 [4] was > 195 µM (not active).

For O=C1c2ccccc2C(=O)c2c(NC3CCCCC3)ccc(Nc3ccc(S(=O)(=O)O)cc3)c21, the AC50 (Cytochrome P450 1A2) was 1.26 µM (inconclusive).

With CN(c1ccccc1C(=O)Nc1cccc([N+](=O)[O-])c1)S(C)(=O)=O the EC50 [1] was > 120 µM (not active), the EC50 [2] was > 120 µM (not active) and the EC50 [3] was 16.8 µM (active).

For COc1cccc(OCc2cc(C(=O)N(C)Cc3nccn3C)no2)c1, the EC50 (H4) was > 120 µM (not active), the EC50 [7] was 15.6 µM (active) and the EC50 [8] was 9.91 µM (active).

With CCC(=O)Nc1cc(Cl)ccc1N1CCN(C(=O)CC)CC1 the IC50 [5] was > 47.1 µM (inactive) and the EC50 [6] was > 53 µM (inactive).

With COc1ccc(N=C(S)Nc2ccc(F)cc2)c(OC)c1 the EC50 [4] was > 195 µM (not active).

For CCOC(=O)c1c(C(F)(F)C(F)(F)C(F)(F)C(F)(F)F)n[nH]c1C, the IC50 [5] was > 47.1 µM (inactive) and the EC50 [6] was > 53 µM (inactive).

In the case of CC(C)c1ccc(NC(S)=NC2CCCCCC2)cc1, the EC50 (H4) is reported as 22 µM (active), the EC50 [7] is reported as 14.3 µM (active) and the EC50 [8] is reported as 0.166 µM (active).

With CCCOc1ccc(C(=O)NC(=S)Nc2nc3ccccc3s2)cc1 the EC50 (H4) was 48.3 µM (active), the EC50 [7] was 22.5 µM (active) and the EC50 [8] was 20.9 µM (active).

In the case of CCOC(=O)c1cc(C#N)c(N2CCN(c3ccccn3)CC2)nc1-c1ccccc1, the IC50 [5] is reported as > 47.1 µM (inactive) and the EC50 [6] is reported as > 53 µM (inactive).

In the case of COc1ccc(CCN2C(=O)CC(Cc3ccccc3)C2=O)cc1OC (centres undefined), the IC50 [5] is reported as > 47.1 µM (inactive) and the EC50 [6] is reported as > 53 µM (inactive).

With c1ccc(C2CSc3ccccc3N2)cc1 (centres undefined) the EC50 (H4) was 22.5 µM (active), the EC50 [7] was 27.5 µM (active) and the EC50 [8] was 16.9 µM (active).

For COc1ccc(C(=O)Cc2cnn(-c3ccccc3)c2)c(O)c1, the EC50 (H4) was > 120 µM (not active), the EC50 [7] was 1.58 µM (active) and the EC50 [8] was 0.135 µM (active).

With COc1ccc(-c2nc3n(n2)C(c2ccccc2)C2=C(O)CCCC2=N3)cc1OC (centres undefined) the EC50 [4] was > 195 µM (not active).

With CC(=O)Nc1ccc(S(=O)(=O)N2CCC(c3nnc(-c4ccc(C)cc4)o3)CC2)cc1 the IC50 [5] was > 47.1 µM (inactive) and the EC50 [6] was > 53 µM (inactive).

For Cc1cccc2cc(CN(Cc3ccccc3)C(S)=NCCCN(C)C)c(O)nc12, the EC50 [4] was > 195 µM (not active).

With COc1ccc(NC(=O)c2sc3nc(N4CCCC4)c4c(c3c2N)CC(C)(C)OC4)c(OC)c1 the EC50 [1] was 14.7 µM (active), the EC50 [2] was 35.2 µM (active) and the EC50 [3] was 31.3 µM (active).

With CCOC(=O)c1c(-c2ccc(OC)cc2)csc1NC(=O)CCN1C(=O)c2ccccc2C1=O the AC50 (Cytochrome P450 1A2) was 12.6 µM (inconclusive) and the AC50 (Cytochrome P450 3A4) was 4.47 µM (inconclusive).

With Cc1ccnc(N2CCCC(C(=O)NCc3cccs3)C2)n1 (centres undefined) the EC50 [4] was > 195 µM (not active).

With CCCC/C=C/C(NC(=O)c1ccc(-c2ccccc2)cc1)c1ccccc1 (centres undefined) the AC50 (Cytochrome P450 1A2) was 15.8 µM (inconclusive).

With CC(=O)Nc1cc(C(=O)N2CCC3(CC2)OCCO3)ccc1S(=O)(=O)c1ccc(C)cc1 the IC50 [5] was > 47.1 µM (inactive) and the EC50 [6] was > 53 µM (inactive).

In the case of CNC(=O)[C@H](C)[C@@H]1C[C@@]1(C)[C@@H](NC(=O)OCc1ccccc1)c1ccccc1, the AC50 (Cytochrome P450 1A2) is reported as 20 µM (inconclusive).

With Cc1ccc2c(c1)cc1c(O)nncn12 the EC50 (H4) was 24.7 µM (active), the EC50 [7] was 9.57 µM (active) and the EC50 [8] was 15.6 µM (active).

For Cc1c(C(=O)NCC2CCCO2)sc2nc(-c3ccc(F)cc3)cn12 (centres undefined), the IC50 [5] was > 47.1 µM (inactive) and the EC50 [6] was > 53 µM (inactive).

For O=C(NCc1cccs1)c1ccc(N2CCCCC2)nc1, the EC50 (H4) was 31.5 µM (active), the EC50 [7] was 30.9 µM (active) and the EC50 [8] was > 120 µM (not active).

With Cc1cc(C)nc(SCCC(=O)Nc2ccccc2C)n1 the IC50 [5] was > 47.1 µM (inactive) and the EC50 [6] was > 53 µM (inactive).

For O=C(NC(C(=O)c1ccccc1)n1ccc(=O)[nH]c1=O)c1ccccc1 (centres undefined), the EC50 (H4) was 16.4 µM (active), the EC50 [7] was 11.9 µM (active) and the EC50 [8] was 7.39 µM (active).

For O=C(CCSc1ccccc1)N1CCN(c2ccccc2)CC1, the EC50 (H4) was 28.4 µM (active), the EC50 [7] was 15.5 µM (active) and the EC50 [8] was > 120 µM (not active).

In the case of Cc1ccnc(N2CCCC(C(=O)NC3CC3)C2)n1 (centres undefined), the IC50 [5] is reported as > 47.1 µM (inactive) and the EC50 [6] is reported as > 53 µM (inactive).

In the case of C/C(=N\NS(=O)(=O)c1ccccc1)c1ccc2c(c1)OCCO2, the EC50 [4] is reported as > 195 µM (not active).

With O=S1(=O)CC/C(=N\Nc2ccc(F)cc2)c2ccsc21 the EC50 [4] was > 195 µM (not active).

In the case of O=C(Cc1ccccc1)N/N=C/c1ccc2c(c1)OCO2, the EC50 (H4) is reported as > 120 µM (not active), the EC50 [7] is reported as 103 µM (active) and the EC50 [8] is reported as 1.52 µM (active).

For O=C(Nc1ccc(Br)cc1)C1Cc2ccccc2O/C1=N\O (centres undefined), the EC50 (H4) was 9.69 µM (active), the EC50 [7] was 7.85 µM (active) and the EC50 [8] was 11.3 µM (active).
